Assay results from patent US20260218439A1, “METHOD OF TREATING OR REDUCING CANCER COMPRISING ADMINISTERING A COMPOUND 3-(BENZO[D][1,3]DIOXOL-5-YL)-7-(1-HYDROXYPROPAN-2-YL)-1-(1H-INDOLE-3-YL)-6,7-DIHYDRO-3H-OXAZOLE[3,4-A]PYRAZINE-5,8-DIONE” (BIOLAB SANUS FARMACEUTICA LTDA, priority 2019, published 2026).

What was measured:
PDE5A1 = biological target: T1, PDE5A1 (Homo sapiens, UniProt O76074); test: PDE5A1 fluorescence polarization enzyme assay (BPS Bioscience kit 60350); format: biochemical
T1 construct: purchased BPS Bioscience 60350
Experimental: The evaluation of the compound is studied using BPS Bioscience enzyme assay kit (catalogue 60350). The PDE5A1 Assay kit is designed for identification of PDE5A1 inhibitors using fluorescence polarization. The assay is based on the binding of a fluorescent nucleotide monophosphate generated by PDE5A1 enzyme to the binding agent.
In this methodology only two simple steps on a microtiter plate are required for PDE5A1 reactions. First, the fluorescently labeled cGMP is incubated with PDE5A1 for 1 hour. Second, the binding agent is added to the reaction mixture to produce a change in fluorescent polarization that can then be measured using a fluorescence reader equipped for the measurement of fluorescence polarization.
For the assay the storage reagent FAM-Cyclic-3′,5′-GMP (20 μM) is diluted with PDE assay buffer to achieve the solution with a […]; the PDE5A1 enzyme is thawed and diluted with the PDE buffer obtaining a PDE5A1 solution at 10 μg/mL.
The assay compounds are diluted with DMSO 100% (v/v) at a concentration of 1000 μM and subsequently diluted in a Sodium chloride 0.9% solution to obtain a curve of concentrations of interest for the assay. The compounds are diluted in concentrations of: 10 nM, 30 nM, 50 nM, 100 nM, 300 nM, 500 nM, 1 μM, 3 μM, 5 μM (DMSO 10% v/v).
The study is comprised of groups: (i) substrate control; (ii) positive control (KIT); (iii) samples in several concentrations; (iv) tadalafil (comparative control). Each parameter (group) is triple labeled.
• For the 4 groups there is added, to each microplate well, […] of the FAM-Cyclic-3′ reagent, 5′-GMP (200 μM). • To the substrate control group there is added, to each well, […] of vehicle (DMSO 10% v/v) and […] PDE Buffer. • To the positive control group there is added, to each well, […] of vehicle (DMSO 10% v/v). • To the tadalafil group: there is added 5 mL of the solution in the concentrations of interest. • To the test group there is added 5 mL of the sample solution (test compound)
OBSERVATION: the parameters tested are in triplicate.
To begin the reaction, add […] of the PDE5A1 enzyme (diluted as described above) to the microplate wells designated as Positive Control and Samples (test and tadalafil), and incubate the microplate, for 1 hour, at a temperature of 25° C.
After the incubation period, the reaction is interrupted by the addition, in all the wells, of […] of the binding agent solution and the microplate is incubated for 30 minutes, under light stirring, at room temperature. The reading of the microplate is carried out in Polarized Fluorescence (475-495 nm—excitation and 518-538 nm—emission detection) 500 nanoseconds integration time.

[1] = test system: PC3-human prostate cancer cells; test: Cell proliferation inhibition (CYQuant intracellular DNA), PC3; format: cell-based; conditions: for % Cell Proliferation Inhibition (intracellular DNA) PC-3 (average ± E.P.M.): 72 hours
Experimental: (§1) For the execution of the assay, the compounds are diluted in DMSO 100% (v/v) at a concentration of 1000 μM and subsequently diluted in a Sodium Chloride solution 0.9% to obtain the storage solutions of interest for use in the assays. The final concentration of interest will be directly diluted in the cell culture medium. For the assay there are used the following tumor cell lineages: PC3-human prostate cancer cells; LNCAP-human prostate cancer cells; DU145-human prostate cancer; MNK45-human gastric cancer and RT4-human bladder cancer cells. The tumor cell lineages are maintained in culture according to standard procedures established by the Cell Bank of Rio de Janeiro (lineage place of origin) Procedure: • For the assay, the tumor cells are seeded in the concentration of 10.000 cells per well (final volume of the reaction of […]), the plate is incubated for 8 hours, for the cells to adhere to the wall of the wells. After this period, the plate is divided in groups: • (a) test group: […] of the samples were added (test compound) in the concentrations of interest; • (b) positive control group: […] of culture medium were added (100% of cell proliferation); • (c) negative control group: 200 mL of culture medium and […] of the vehicle used were added to dilute the compounds (without cells—zero proliferation); • (d) control group: […] were added of the vehicle used to dilute the compounds. This group is important to evaluate whether the vehicle used interferes in the cell proliferation. OBSERVATION: the treatment with the concentrations of samples (test compounds) and of the controls are carried out in triplicate. • Incubate the plate for 72 hours in a CO2 kiln at 37° C. • After the incubation period, add […] of the solution with DNA marker from the CYQuant Kit and incubate the plate, for 60 minutes, in a CO2 incubator at 37° C. The fluorescence intensity is determined using a fluorescence microplate reader with 485 nm excitation and 530 nm emission detection. The results obtained were normalized relative to the positive control group (100% proliferation). For the compounds there are prepared the storage solutions in the concentrations of: 100 nM, 1 μM, 3 μM, 5 μM, 10 μM and 30 μM (DMSO 10% v/v). While the final concentrations in the test are of: 10 nM, 100 nM, 300 nM, 500 nM, 1000 nM and 3000 nM (in DMSO 1% v/v).

[2] = test system: LNCAP-human prostate cancer cells; test: Cell proliferation inhibition (CYQuant intracellular DNA), LNCAP; format: cell-based; conditions: for % Cell Proliferation Inhibition (intracellular DNA) LNCAP (average ± E.P.M.): 72 hours
Experimental: as §1

[3] = test system: DU145-human prostate cancer; test: Cell proliferation inhibition (CYQuant intracellular DNA), DU145; format: cell-based; conditions: for % Cell Proliferation Inhibition (intracellular DNA) DU145 (average ± E.P.M.): 72 hours
Experimental: as §1

[4] = test system: MNK45-human gastric cancer; test: Cell proliferation inhibition (CYQuant intracellular DNA), MNK45; format: cell-based; conditions: 72 hours
Experimental: as §1

[5] = test system: RT4-human bladder cancer cells; test: Cell proliferation inhibition (CYQuant intracellular DNA), RT4; format: cell-based; conditions: for % Cell Proliferation Inhibition (intracellular DNA) RT4 (average ± E.P.M.): 72 hours
Experimental: as §1

Substance: (R)-3-(benzo [d][1, 3]dioxol-5-yl)-7-((R)-1-hydroxypropan-2-yl)-1-(1H-indole-3-yl)-6, 7-dihydro-3H-oxazole [3, 4-a]pyrazine-5, 8-dione with (S)-3-(benzo [d][1,3]dioxol-5-yl)-7-((R)-1-hydroxypropan-2-yl)-1-(1H-indole-3-yl)-6, 7-dihydro-3H-oxazole [3, 4-a]pyrazine-5, 8-dione [BL-380]
- % of Inhibition (PDE5A1) (PDE5A1; compound 10 nM): 0%
- % of Inhibition (PDE5A1) (PDE5A1; compound 30 nM): 0%
- % of Inhibition (PDE5A1) (PDE5A1; compound 50 nM): 0%
- % of Inhibition (PDE5A1) (PDE5A1; compound 100 nM): 0%
- % of Inhibition (PDE5A1) (PDE5A1; compound 300 nM): 15 ± 3%
- % of Inhibition (PDE5A1) (PDE5A1; compound 500 nM): 25 ± 3%
- % of Inhibition (PDE5A1) (PDE5A1; compound 1000 nM): 55 ± 4%
- % of Inhibition (PDE5A1) (PDE5A1; compound 3000 nM): 65 ± 2%
- % of Inhibition (PDE5A1) (PDE5A1; compound 5000 nM): 78 ± 1%
- PDE5 inhibition (result in words) (PDE5A1; concentration series): capable of inhibiting the PDE5 in a dose-dependent manner
- concentration as from which PDE5 inhibition was observed (PDE5A1; tested 10 nM to 5000 nM): ≥ 300 nM
- antiproliferative effect (result in words) ([1]; PC3 prostate cancer tumor lineage): presented antiproliferative effect
- % Cell Proliferation Inhibition (intracellular DNA) PC-3 (average ± E.P.M.) ([1]; PC-3, 10 nM): 39 ± 6%
- % Cell Proliferation Inhibition (intracellular DNA) PC-3 (average ± E.P.M.) ([1]; PC-3, 100 nM): 25 ± 5%
- % Cell Proliferation Inhibition (intracellular DNA) PC-3 (average ± E.P.M.) ([1]; PC-3, 300 nM): 28 ± 2%
- % Cell Proliferation Inhibition (intracellular DNA) PC-3 (average ± E.P.M.) ([1]; PC-3, 500 nM): 48 ± 6%
- % Cell Proliferation Inhibition (intracellular DNA) PC-3 (average ± E.P.M.) ([1]; PC-3, 1000 nM): 40 ± 3%
- % Cell Proliferation Inhibition (intracellular DNA) PC-3 (average ± E.P.M.) ([1]; PC-3, 3000 nM): 54 ± 4%
- antiproliferative effect (result in words) ([2]; LNCAP prostate cancer tumor lineage): presented antiproliferative effect
- % Cell Proliferation Inhibition (intracellular DNA) LNCAP (average ± E.P.M.) ([2]; 10 nM): 26 ± 10%
- % Cell Proliferation Inhibition (intracellular DNA) LNCAP (average ± E.P.M.) ([2]; 100 nM): 12 ± 3%
- % Cell Proliferation Inhibition (intracellular DNA) LNCAP (average ± E.P.M.) ([2]; 300 nM): 29 ± 6%
- % Cell Proliferation Inhibition (intracellular DNA) LNCAP (average ± E.P.M.) ([2]; 500 nM): 27 ± 2%
- % Cell Proliferation Inhibition (intracellular DNA) LNCAP (average ± E.P.M.) ([2]; 1000 nM): 37 ± 2%
- % Cell Proliferation Inhibition (intracellular DNA) LNCAP (average ± E.P.M.) ([2]; 3000 nM): 48 ± 6%
- % Cell Proliferation Inhibition (intracellular DNA) DU145 (average ± E.P.M.) ([3]; DU145, 100 nM): 12 ± 4%
- % Cell Proliferation Inhibition (intracellular DNA) DU145 (average ± E.P.M.) ([3]; DU145, 300 nM): 10 ± 5%
- % Cell Proliferation Inhibition (intracellular DNA) DU145 (average ± E.P.M.) ([3]; DU145, 500 nM): 12 ± 2%
- % Cell Proliferation Inhibition (intracellular DNA) DU145 (average ± E.P.M.) ([3]; DU145, 1000 nM): 10 ± 3%
- % Cell Proliferation Inhibition (intracellular DNA) DU145 (average ± E.P.M.) ([3]; DU145, 3000 nM): 31 ± 5%
- antiproliferative effect (result in words) ([3]; DU145 prostate cancer tumor lineage): presented antiproliferative effect
- % Cell Proliferation Inhibition (intracellular DNA) MNK45 (average ± E.P.M.) ([4]; MNK45, 100 nM): 7 ± 2%
- % Cell Proliferation Inhibition (intracellular DNA) MNK45 (average ± E.P.M.) ([4]; MNK45, 300 nM): 0%
- % Cell Proliferation Inhibition (intracellular DNA) MNK45 (average ± E.P.M.) ([4]; MNK45, 500 nM): 0%
- % Cell Proliferation Inhibition (intracellular DNA) MNK45 (average ± E.P.M.) ([4]; MNK45, 1000 nM): 0%
- % Cell Proliferation Inhibition (intracellular DNA) MNK45 (average ± E.P.M.) ([4]; MNK45, 3000 nM): 16 ± 5%
- % Cell Proliferation Inhibition (intracellular DNA) RT4 (average ± E.P.M.) ([5]; RT4, 100 nM): 8 ± 6%
- % Cell Proliferation Inhibition (intracellular DNA) RT4 (average ± E.P.M.) ([5]; RT4, 300 nM): 5 ± 5%
- % Cell Proliferation Inhibition (intracellular DNA) RT4 (average ± E.P.M.) ([5]; RT4, 500 nM): 3 ± 5%
- % Cell Proliferation Inhibition (intracellular DNA) RT4 (average ± E.P.M.) ([5]; RT4, 1000 nM): 3 ± 1%
- % Cell Proliferation Inhibition (intracellular DNA) RT4 (average ± E.P.M.) ([5]; RT4, 3000 nM): 58 ± 4%
- antiproliferative effect (result in words) ([5]; RT4 bladder cancer tumor lineage): presented antiproliferative effect
